We go through four compounds from patent publication US8034778B2, “Neuroprotective compounds and uses thereof” (Ever Neuro Pharma GmbH, priority 2006, dated 2011).

For this series, the system named is telencephalon neurons from 9-day-old chicken embryos (cortical neurons). It is filed as cell-based. The procedure: 1.1.2. Assay Conditions: • Assay: 2% low serum cell culture assay • Cell source: telencephalon neurons from 9-day-old chicken embryos (Lohman Brown hybrid) • Nutrition medium: EMEM with 1 g glucose/l, 2% FCS, 0.01% gentamycin sulfate and 2 mM L-glutamine • Group size: 4 independent experiments were performed (n =8 for DLHW (SEQ ID NO:2), NIVTPR (SEQ ID NO:3), HGFLPR (SEQ ID NO:4), NMVPFPR (SEQ ID NO:5) and the test matrix) • Evaluation of the effects: • MTT viability assay; absorbance (OD) measured with a plate reader • Duration of one single experiment: • 8 days
2.2.1.1. Test Item (DLHW) (SEQ ID NO:2): • Vehicle for dilution: test matrix (6.18 mg/ml NaCl and 0.35 mg/ml KCl) • Application mode: once at the 1st day • Application period: for the whole experiment, i.e. 8 days, from 1st day onwards • Concentrations: 5.6, 11.25, 22.5, 45, 90, 180, 360 and 720 μg/ml • Administration volume: 0.625, 1.25, 2.5, 5, 10, 20, 40, 80 μl/ml medium
2.2.1.2. Test Item (NIVTPR) (SEQ ID NO:3): • Vehicle for dilution: test matrix (6.18 mg/ml NaCl and 0.35 mg/ml KCl) • Application mode: once at the 1st day • Application period: for the whole experiment, i.e. 8 days, from 1st day onwards • Concentrations: 5.6, 11.25, 22.5, 45, 90, 180, 360 and 720 μg/ml • Administration volume: 0.625, 1.25, 2.5, 5, 10, 20, 40, 80 μl/ml medium
2.2.1.3. Test Item (HGFLPR) (SEQ ID NO:4): • Vehicle for dilution: test matrix (6.18 mg/ml NaCl and 0.35 mg/ml KCl) • Application mode: once at the 1st day • Application period: for the whole experiment, i.e. 8 days, from 1st day onwards • Concentrations: 5.6, 11.25, 22.5, 45, 90, 180, 360 and 720 μg/ml • Administration volume: 0.625, 1.25, 2.5, 5, 10, 20, 40, 80 μl/ml medium
2.2.1.4. Test Item (NMPFPR) (SEQ ID NO:5): • Vehicle for dilution: test matrix (6.18 mg/ml NaCl and 0.35 mg/ml KCl) • Application mode: once at the 1st day • Application period: for the whole experiment, i.e. 8 days, from 1st day onwards • Concentrations: 5.6, 11.25, 22.5, 45, 90, 180, 360 and 720 μg/ml • Administration volume: 0.625, 1.25, 2.5, 5, 10, 20, 40, 80 μl/ml medium
2.3. Assay Conditions • Cell culture assays: 2% low serum assay • Cell source: telencephalon neurons from 9-day-old chicken embryos (Lohman Brown hybrid) • Nutrition medium: EMEM with 1 g glucose/l, 2% FCS, 0.01% gentamycin sulfate and 2mM L-glutamine • Group size: 4 independent experiments were performed (n =8for DLHW (SEQ ID NO:2) ant and the test matrix; n =224 for controls) • Evaluation of the effects: MTT viability assay; absorbance (OD) measured with a plate reader • Duration of one single experiment: 8 days
The analytical procedure used in the present example is a 2% low serum assay using isolated avian cortical neurons. With this in vitro cell culture assay the neuroprotective and/or neurotrophic potential of compounds can be evaluated by determining the viability of living neurons after a distinct time period in culture. The method for measuring the amount of viable neurons is the MTT-assay.
To the isolated nerve cells the peptides or test matrix were added once, i.e. at the first day. The 8 concentrations comprising dose range was between 5.6, 11.25, 22.5, 45, 90, 180, 360 and 720 μg/ml medium; the volumes applied were 0.625, 1.25, 2.5, 5, 10, 20, 40, 80 μl/ml medium.
Neuronal viability of cultures was determined with the MTT-assay using a plate-reader (570 nm). The MTT-assay is a sensitive assay measuring the mitochondrial dehydrogenase activity in viable cells only. It is performed according to the method described by Mosmann, J. Immunol. Meth, 1983, 55-63. This assay is based on the reduction of yellow MTT (3-(4,5-dimethylthiazol-2-yl)-2,5,diphenyl tetrazolium bromide), to dark blue formazan crystals by mitochondrial dehydrogenases (succinate dehydrogenase). Since this reaction is catalysed in living cells only the assay can be used for the quantification of cell viability. […]

The mark [1] stands for this setting: 5.6 μg/ml, added at 1DIV, 8 days.
Where [2] appears, read: 11.25 μg/ml, added at 1DIV, 8 days.
Setting [3] is: 22.5 μg/ml, added at 1DIV, 8 days.
The mark [4] stands for this setting: 45 μg/ml, added at 1DIV, 8 days.
[5] abbreviates: 90 μg/ml, added at 1DIV, 8 days.
[6] abbreviates: 180 μg/ml, added at 1DIV, 8 days.
The mark [7] stands for this setting: 360 μg/ml, added at 1DIV, 8 days.
Setting [8] is: 720 μg/ml, added at 1DIV, 8 days.
[9] abbreviates: Lohman Brown hybrid, chicken, 8 days, 5.6 μg/ml.
The mark [10] stands for this setting: Lohman Brown hybrid, chicken, 8 days, 11.25 μg/ml.
Where [11] appears, read: Lohman Brown hybrid, chicken, 8 days, 22.5 μg/ml.
[12] abbreviates: Lohman Brown hybrid, chicken, 8 days, 45 μg/ml.
[13] abbreviates: Lohman Brown hybrid, chicken, 8 days, 90 μg/ml.
Setting [14] is: Lohman Brown hybrid, chicken, 8 days, 180 μg/ml.
Setting [15] is: Lohman Brown hybrid, chicken, 8 days, 360 μg/ml.
Setting [16] is: Lohman Brown hybrid, chicken, 8 days, 720 μg/ml.

Read-outs that look alike come from different tables or passages of the source. Residues, ends and D or L forms follow the SMILES beside them. No end group written: not given here.

On to `CC(C)C[C@H](NC(=O)[C@@H](N)CC(=O)O)C(=O)N[C@@H](Cc1c[nH]cn1)C(=O)N[C@@H](Cc1c[nH]c2ccccc12)C(=O)O` [DLHW] (H-DLHW-OH; N-terminus and C-terminus assumed), for which the “viability of cortical neurons, MTT, mean optical density (OD)” value (“viability of cortical neurons, MTT” below) under setting [1] worked out at 0.062 OD; the “viability of cortical neurons, MTT” value under setting [2] is listed as 0.062 OD; the “viability of cortical neurons, MTT” value under setting [3] is 0.085 OD; the “viability of cortical neurons, MTT” value under setting [4] was 0.136 OD; the “viability of cortical neurons, MTT” value under setting [5] amounted to 0.217 OD; the “viability of cortical neurons, MTT” value under setting [6] was 0.272 OD. The “viability of cortical neurons, MTT” value worked out at 0.254 OD under setting [7] and 0.257 OD under setting [8]. The “viability of cortical neurons, mean in % (control is 100%)” value (“viability of cortical neurons, mean in %” below) by setting is: under setting [9], 97.85%; under setting [10], 97.68%; under setting [11], 134.51%; under setting [12], 213.12%; under setting [13], 341.82%; under setting [14], 429.54%. The “viability of cortical neurons, mean in %” value reads like this: under setting [15], 401.23%; under setting [16], 406.75%. Also, the “maximum effect (viability, control 100%)” value under setting [15] is listed as 430%. Moreover, the effect beyond control (added at 1DIV, MTT method) turned out to be 430%. For the same compound, for the setting “added at 1DIV, MTT method”, the effective dose range is 45 to 702 µg/mL. Where the note is “added at 1DIV, MTT method”, the “maximum effect in %” value is 430%. Under “added at 1DIV, MTT method”, this compound had a most effectice concentration of 180 µg/mL. Further, the “effect above the control level” value (in higher concentrations (than that of the maximum effect)) is recorded as around 300%.

Take HGFLPR [HGFLPR]: the “viability of cortical neurons, MTT” value reads like this: under setting [1], 0.068 OD; under setting [2], 0.069 OD; under setting [3], 0.069 OD; under setting [4], 0.067 OD; under setting [5], 0.070 OD; under setting [6], 0.067 OD. Besides, the “viability of cortical neurons, MTT” value is recorded as 0.064 OD under setting [7] and 0.058 OD under setting [8]. Also, the “viability of cortical neurons, mean in %” value under setting [9] turned out to be 100.07%; the “viability of cortical neurons, mean in %” value under setting [10] is 101.16%; the “viability of cortical neurons, mean in %” value under setting [11] stood at 101.16%; the “viability of cortical neurons, mean in %” value under setting [12] was determined as 98.95%; the “viability of cortical neurons, mean in %” value under setting [13] was 102.25%; the “viability of cortical neurons, mean in %” value under setting [14] is given as 99.14%. Further, the “viability of cortical neurons, mean in %” value was 94.53% under setting [15] and 85.71% under setting [16].

As for NIVTPR [NIVTPR], the “viability of cortical neurons, MTT” value under setting [1] was 0.068 OD; the “viability of cortical neurons, MTT” value under setting [2] is listed as 0.069 OD; the “viability of cortical neurons, MTT” value under setting [3] was 0.068 OD; the “viability of cortical neurons, MTT” value under setting [4] is recorded as 0.068 OD; the “viability of cortical neurons, MTT” value under setting [5] amounted to 0.066 OD; the “viability of cortical neurons, MTT” value under setting [6] stood at 0.064 OD. The “viability of cortical neurons, MTT” value reads like this: under setting [7], 0.060 OD; under setting [8], 0.058 OD. Further, the “viability of cortical neurons, mean in %” value is, setting by setting: under setting [9], 98.92%; under setting [10], 100.32%; under setting [11], 98.70%; under setting [12], 98.75%; under setting [13], 95.12%; under setting [14], 92.28%. The “viability of cortical neurons, mean in %” value runs as follows: under setting [15], 86.60%; under setting [16], 83.13%.

On to NMVPFPR [NMVPFPR], for which the “viability of cortical neurons, MTT” value was 0.061 OD under setting [1]; 0.060 OD under setting [2]; 0.057 OD under setting [3]; 0.057 OD under setting [4]; 0.056 OD under setting [5]; 0.055 OD under setting [6]. Further, the “viability of cortical neurons, MTT” value reads like this: under setting [7], 0.055 OD; under setting [8], 0.057 OD. For the same compound, the “viability of cortical neurons, mean in %” value was determined as 98.06% under setting [9]; 95.77% under setting [10]; 90.76% under setting [11]; 90.55% under setting [12]; 89.54% under setting [13]; 87.76% under setting [14]. The “viability of cortical neurons, mean in %” value runs as follows: under setting [15], 87.79%; under setting [16], 91.24%.
